From PubChem BioAssay AID743503 (Broad Institute, 2014)
Activity calls are given as the source filed them.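 How the source made its calls: active means IC50 under 35 µM for lowering the luciferase reporter signal in dopamine receptor counterscreen cells; inactive means IC50 over 35 µM.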

Tested on: HEK293 dopamine receptor CRE-luciferase, luminescence
Assay: inhibition of dopamine-driven CRE reporter signal – cell-based, HEK293, luminescence, dry powder, set 2, counter-screen for LGR2 antagonist project, dose response (AID 743503)

Compound | IC50
C[C@H](CO)N1C[C@H](C)[C@H](CN(C)C(=O)Nc2cccc3ccccc23)OCCCC[C@H](C)Oc2ccc(NC(=O)C3CCCCC3)cc2C1=O | > 35 µM (inactive)
C[C@H](CO)N1C[C@H](C)[C@H](CN(C)C(=O)Nc2ccc(F)cc2)OCCCC[C@H](C)Oc2ccc(NC(=O)C3CCCCCC3)cc2C1=O | > 35 µM (inactive)
C[C@@H]1CN([C@@H](C)CO)C(=O)c2cc(NC(=O)C3CCCCC3)ccc2O[C@@H](C)CCCCO[C@H]1CN(C)C(=O)Nc1cccc2ccccc12 | > 35 µM (inactive)
C[C@H](CO)N1C[C@H](C)[C@H](CN(C)C(=O)Nc2ccc(F)cc2)OCCCC[C@H](C)Oc2ccc(NC(=O)C3CCCC3)cc2C1=O | > 35 µM (inactive)
Cc1ccc(NC(=O)N(C)C[C@@H]2OCCCC[C@H](C)Oc3ccc(NC(=O)C4CCCCC4)cc3C(=O)N([C@H](C)CO)C[C@@H]2C)cc1 | > 35 µM (inactive)
C[C@H]1CCCCO[C@@H](CN(C)C(=O)Nc2cccc3ccccc23)[C@@H](C)CN([C@@H](C)CO)C(=O)c2cc(NC(=O)C3CCCCC3)ccc2O1 | > 35 µM (inactive)
C[C@H](CO)N1C[C@H](C)[C@H](CN(C)C(=O)Nc2ccc3ccccc3c2)OCCCC[C@H](C)Oc2ccc(NC(=O)C3CCCCC3)cc2C1=O | > 35 µM (inactive)
C[C@H](CO)N1C[C@H](C)[C@H](CN(C)C(=O)Nc2cccc(F)c2)OCCCC[C@H](C)Oc2ccc(NC(=O)C3CCCCC3)cc2C1=O | > 35 µM (inactive)
C[C@H](CO)N1C[C@H](C)[C@H](CN(C)C(=O)Nc2ccccc2F)OCCCC[C@H](C)Oc2ccc(NC(=O)C3CCCCC3)cc2C1=O | > 35 µM (inactive)
C[C@H](CO)N1C[C@H](C)[C@H](CN(C)C(=O)Nc2ccc(Cl)cc2)OCCCC[C@H](C)Oc2ccc(NC(=O)C3CCCCC3)cc2C1=O | > 35 µM (inactive)
